Usually inhibition stands for the share of the control response that was lost under treatment.

From patent US20250250282A1, “NOVEL SEVEN-MEMBERED RING-FUSED COMPOUNDS” (PRISM Biolab Co., Ltd., priority 2022, published 2025) come the findings set out here.

The assay deals with CellSensor T-REx NICD CSL-bla HeLa cell line (Notch response element driving beta-lactamase reporter). Description: Notch assay (CSL-bla beta-lactamase reporter, DOX-inducible NICD). The conditions noted are these: Homo sapiens; 10 μM compound; HeLa/T-REx NICD CSL-bla cells, doxycycline-induced, 16-20 hours incubation; blue/green emission ratio. The format is cell-based. The procedure:
We used the CellSensor T-REx™ NICD CSL-bla HeLa cell line, which was engineered by lentiviral transduction of HeLa cells with a Notch response element driving beta-lactamase reporter gene expression (CSL-bla) along with DOX (doxycycline)-inducible NICD (Notch intracellular domain) constructs. Addition of DOX to these cells allows for regulated NICD transcription factor expression and subsequent beta-lactamase expression.
Specifically, the following protocol was used.
• 1. Plate Cells: 32 μL/well of HeLa/T-REx™ NICD CSL-bla cells at 10^3 cells/well complete medium into 384-well plate. • 2. Prepare 10× compounds in assay medium. • 3. Add 4 μL compounds or 1% DMSO in assay medium to the cells. • 4. Add 4 μL 10× Doxycycline in Assay Medium to the treated wells, and 4 μL Assay Medium to the Untreated and cell free control wells. • 5. Incubate the assay plate in a humidified 37° C./5% CO2 incubator for 16-20 hours. • 6. Preparation of 6× LiveBLAzer™-FRET B/G Substrate (CCF4-AM) Mixture according to the manual and cell loading should be done in the absence of direct strong lighting. • 7. Remove assay plate from the humidified 37° C./5% CO2 incubator. Add 8 μl of 6× Substrate Mixture from […] to each well. Cover the plate to protect it from light and evaporation. Incubate at room temperature for 4 hours. • 8. Reading an Assay Plate using the following filter selections:
• 9. Data analysis: Use the assay plate layout to identify the location of the Cell-free wells. These control wells are used for background subtraction. Determine the average emission from the Cell-free wells at both 460 nm (Average Blue Background) and 530 nm (Average Green Background). Subtract the Average Blue Background (data collected at 460 nm) from all of the blue emission data. Subtract the Average Green background (data collected at 530 nm) from all of the green emission data. Calculate the Blue/Green Emission Ratio for each well, by dividing the background-subtracted blue emission values by the background-subtracted green emission values.
With `CC(C)[C@@H]1CN2C(=O)CCN(C(=O)NCc3ccccc3)C2CN(Cc2ccc3ccccc3c2)C1=O` (stereo partly drawn) [ID-01, (7R)—N-benzyl-7-isopropyl-9-(naphthalen-2-ylmethyl)-4,8-dioxooctahydropyrimido[1,2-a][1,4]diazepine-1(2H)-carboxamide], the inhibition at 10 µM was 54.7%.

With `C[C@@H]1CN2C(=O)CCN(C(=O)NCc3cccc4ccccc34)C2CN(CC2CCCCC2)C1=O` (stereo partly drawn) [ID-03, (7R)-9-(cyclohexylmethyl)-7-methyl-N-(naphthalen-1-ylmethyl)-4,8-dioxooctahydropyrimido[1,2-a][1,4]diazepine-1(2H)-carboxamide], the inhibition at 10 µM worked out at 53.4%.

Consider `CCCCN1CC2N(C[C@@H](Cc3ccccc3)C1=O)C(=O)CCN2C(=O)NCCC(c1ccccc1)c1ccccc1` (stereo partly drawn) [ID-04, (7R)-7-benzyl-9-butyl-N-(3,3-diphenylpropyl)-4,8-dioxooctahydropyrimido[1,2-a][1,4]diazepine-1(2H)-carboxamide], for which the inhibition at 10 µM is 54.7%.

Consider `CC(C)CCN1CC2N(C[C@@H](Cc3ccc(O)cc3)C1=O)C(=O)CCN2C(=O)NCCC(c1ccccc1)c1ccccc1` (stereo partly drawn) [ID-05, (7R)—N-(3,3-diphenylpropyl)-7-(4-hydroxybenzyl)-9-isopentyl-4,8-dioxooctahydropyrimido[1,2-a][1,4]diazepine-1(2H)-carboxamide], for which the inhibition at 10 µM was 51.5%.

As to `CC(C)CCN1CC2N(C[C@@H](Cc3ccccc3)C1=O)C(=O)CCN2C(=O)NCCC(c1ccccc1)c1ccccc1` (stereo partly drawn) [ID-06, (7R)-7-benzyl-N-(3,3-diphenylpropyl)-9-isopentyl-4,8-dioxooctahydropyrimido[1,2-a][1,4]diazepine-1(2H)-carboxamide], the inhibition at 10 µM was found to be 51.8%.

Regarding `O=C1[C@H](Cc2ccccc2)CN2C(=O)CCN(C(=O)NCCC(c3ccccc3)c3ccccc3)C2CN1CC1CCCCC1` (stereo partly drawn) [ID-07, (7R)-7-benzyl-9-(cyclohexylmethyl)-N-(3,3-diphenylpropyl)-4,8-dioxooctahydropyrimido[1,2-a][1,4]diazepine-1(2H)-carboxamide], the inhibition at 10 µM was found to be 54.7%.

For the molecule `O=C1[C@H](Cc2ccccc2)CN2C(=O)CCN(C(=O)NCCC(c3ccccc3)c3ccccc3)C2CN1Cc1ccccc1` (stereo partly drawn) [ID-08, (7R)-7,9-dibenzyl-N-(3,3-diphenylpropyl)-4,8-dioxooctahydropyrimido[1,2-a][1,4]diazepine-1(2H)-carboxamide], the inhibition at 10 µM stood at 64.9%.

Regarding `CC(C)[C@@H]1CN2C(=O)CCN(C(=O)NCCC(c3ccccc3)c3ccccc3)C2CN(CCc2ccccc2)C1=O` (stereo partly drawn) [ID-09, (7R)—N-(3,3-diphenylpropyl)-7-isopropyl-4,8-dioxo-9-phenethyloctahydropyrimido[1,2-a][1,4]diazepine-1(2H)-carboxamide], the inhibition at 10 µM was 54.1%.

As for `CC(C)C[C@@H]1CN2C(=O)CCN(C(=O)NCCC(c3ccccc3)c3ccccc3)C2CN(CCc2ccccc2)C1=O` (stereo partly drawn) [ID-10, (7R)—N-(3,3-diphenylpropyl)-7-isobutyl-4,8-dioxo-9-phenethyloctahydropyrimido[1,2-a][1,4]diazepine-1(2H)-carboxamide], the inhibition at 10 µM was found to be 50.3%.

Regarding `O=C1[C@H](Cc2ccc(O)cc2)CN2C(=O)CCN(C(=O)NCCC(c3ccccc3)c3ccccc3)C2CN1CCc1ccccc1` (stereo partly drawn) [ID-11, (7R)—N-(3,3-diphenylpropyl)-7-(4-hydroxybenzyl)-4,8-dioxo-9-phenethyloctahydropyrimido[1,2-a][1,4]diazepine-1(2H)-carboxamide], the inhibition at 10 µM is 64.1%.

Regarding `O=C1[C@H](Cc2ccccc2)CN2C(=O)CCN(C(=O)NCCC(c3ccccc3)c3ccccc3)C2CN1CCc1ccccc1` (stereo partly drawn) [ID-12, (7R)-7-benzyl-N-(3,3-diphenylpropyl)-4,8-dioxo-9-phenethyloctahydropyrimido[1,2-a][1,4]diazepine-1(2H)-carboxamide], the inhibition at 10 µM came out at 51.7%.

In the case of `O=C1[C@H](Cc2ccc(O)cc2)CN2C(=O)CCN(C(=O)NCCC(c3ccccc3)c3ccccc3)C2CN1Cc1cccc2cccnc12` (stereo partly drawn) [ID-13, (7R)—N-(3,3-diphenylpropyl)-7-(4-hydroxybenzyl)-4,8-dioxo-9-(quinolin-8-ylmethyl)octahydropyrimido[1,2-a][1,4]diazepine-1(2H)-carboxamide], the inhibition at 10 µM was 53.7%.

Turning to `CC(C)[C@@H]1CN2C(=O)CCN(C(=O)NCCC(c3ccccc3)c3ccccc3)C2CN(Cc2ccc3ccccc3c2)C1=O` (stereo partly drawn) [ID-14, (7R)—N-(3,3-diphenylpropyl)-7-isopropyl-9-(naphthalen-2-ylmethyl)-4,8-dioxooctahydropyrimido[1,2-a][1,4]diazepine-1(2H)-carboxamide], the inhibition at 10 µM was determined as 62.4%.

For `O=C1[C@H](Cc2ccc(O)cc2)CN2C(=O)CCN(C(=O)NCC3CCCCC3)C2CN1Cc1cccc2ccccc12` (stereo partly drawn) [ID-15, (7R)—N-(cyclohexylmethyl)-7-(4-hydroxybenzyl)-9-(naphthalen-1-ylmethyl)-4,8-dioxooctahydropyrimido[1,2-a][1,4]diazepine-1(2H)-carboxamide], the inhibition at 10 µM amounted to 57.5%.

Regarding `O=C1[C@H](Cc2ccccc2)CN2C(=O)CCN(C(=O)NCC3CCCCC3)C2CN1Cc1cccc2ccccc12` (stereo partly drawn) [ID-16, (7R)-7-benzyl-N-(cyclohexylmethyl)-9-(naphthalen-1-ylmethyl)-4,8-dioxooctahydropyrimido[1,2-a][1,4]diazepine-1(2H)-carboxamide], the inhibition at 10 µM is 60.2%.

Take `CC(C)[C@@H]1CN2C(=O)c3sccc3N(C(=O)NCc3ccccc3)C2CN(Cc2ccc3ccccc3c2)C1=O` (stereo partly drawn) [ID-20, (8R)—N-benzyl-8-isopropyl-6-(naphthalen-2-ylmethyl)-7,11-dioxo-4a,5,6,7,8,9-hexahydrothieno[3′,2′:4,5]pyrimido[1,2-a][1,4]diazepine-4(11H)-carboxamide]: the inhibition at 10 µM came out at 56.8%.

`O=C1[C@H](Cc2ccc(O)cc2)CN2C(=O)c3sccc3N(C(=O)NCCc3ccccc3)C2CN1Cc1cccc2ccccc12` (stereo partly drawn) [ID-22, (8R)-8-(4-hydroxybenzyl)-6-(naphthalen-1-ylmethyl)-7,11-dioxo-N-phenethyl-4a,5,6,7,8,9-hexahydrothieno[3′,2′:4,5]pyrimido[1,2-a][1,4]diazepine-4(11H)-carboxamide]: the inhibition at 10 µM was determined as 56.2%.

With `O=C1[C@H](Cc2ccccc2)CN2C(=O)c3sccc3N(C(=O)NCCc3ccccc3)C2CN1Cc1cccc2cccnc12` (stereo partly drawn) [ID-23, (8R)-8-benzyl-7,11-dioxo-N-phenethyl-6-(quinolin-8-ylmethyl)-4a,5,6,7,8,9-hexahydrothieno[3′,2′:4,5]pyrimido[1,2-a][1,4]diazepine-4(11H)-carboxamide], the inhibition at 10 µM turned out to be 54.6%.

With `CCCCN1CC2N(C[C@@H](CC(C)C)C1=O)C(=O)c1sccc1N2C(=O)NCc1cccc2ccccc12` (stereo partly drawn) [ID-24, (8R)-6-butyl-8-isobutyl-N-(naphthalen-1-ylmethyl)-7,11-dioxo-4a,5,6,7,8,9-hexahydrothieno[3′,2′:4,5]pyrimido[1,2-a][1,4]diazepine-4(11H)-carboxamide], the inhibition at 10 µM worked out at 51.1%.

With `CC(C)CCN1CC2N(C[C@@H](CC(C)C)C1=O)C(=O)c1sccc1N2C(=O)NCc1cccc2ccccc12` (stereo partly drawn) [ID-25, (8R)-8-isobutyl-6-isopentyl-N-(naphthalen-1-ylmethyl)-7,11-dioxo-4a,5,6,7,8,9-hexahydrothieno[3′,2′:4,5]pyrimido[1,2-a][1,4]diazepine-4(11H)-carboxamide], the inhibition at 10 µM stood at 52.8%.

For `CC(C)CCN1CC2N(C[C@@H](Cc3ccc(O)cc3)C1=O)C(=O)c1sccc1N2C(=O)NCc1cccc2ccccc12` (stereo partly drawn) [ID-26, (8R)-8-(4-hydroxybenzyl)-6-isopentyl-N-(naphthalen-1-ylmethyl)-7,11-dioxo-4a,5,6,7,8,9-hexahydrothieno[3′,2′:4,5]pyrimido[1,2-a][1,4]diazepine-4(11H)-carboxamide], the inhibition at 10 µM was 61.1%.

`O=C1[C@H](Cc2ccc(O)cc2)CN2C(=O)c3sccc3N(C(=O)NCc3cccc4ccccc34)C2CN1CC1CCCCC1` (stereo partly drawn) [ID-27, (8R)-6-(cyclohexylmethyl)-8-(4-hydroxybenzyl)-N-(naphthalen-1-ylmethyl)-7,11-dioxo-4a,5,6,7,8,9-hexahydrothieno[3′,2′:4,5]pyrimido[1,2-a][1,4]diazepine-4(11H)-carboxamide]: the inhibition at 10 µM amounted to 54.4%.

Turning to `C[C@@H]1CN2C(=O)c3sccc3N(C(=O)NCCC(c3ccccc3)c3ccccc3)C2CN(Cc2ccc3ccccc3c2)C1=O` (stereo partly drawn) [ID-29, (8R)—N-(3,3-diphenylpropyl)-8-methyl-6-(naphthalen-2-ylmethyl)-7,11-dioxo-4a,5,6,7,8,9-hexahydrothieno[3′,2′:4,5]pyrimido[1,2-a][1,4]diazepine-4(11H)-carboxamide], the inhibition at 10 µM came to 56.7%.
